Our source for the IC50 values is US8450332B2, “LIMK2 inhibitors, compositions comprising them, and methods of their use” (Lexicon Pharmaceuticals, Inc., priority 2008, dated 2013).

Structures are written as SMILES.

This assay has as its target T1, LIMK2 (Homo sapiens, UniProt P53671).
T1 construct: His tag (histidine-tagged; pFastBacHT vector); made in house; host or cells: Sf9 insect cells (BAC-to-BAC baculovirus system)
In words: In vitro LIMK2 inhibition assay (33P incorporation into myelin basic protein flash plates). The class given is biochemical. How it is done:
Using the procedures described herein and methods known in the art, the additional compounds listed below in Table 1 were prepared. The LIMK2 IC50 data that is provided below for some of the compounds was determined using the assay described in Example 32.
An in vitro assay used to identify LIMK2 inhibitors was developed. The analytical readout was the incorporation of ^33P from ATP substrate into immobilized myelin basic protein coated flash plates (Perkin Elmer Biosciences), which were counted on a scintillation counter equipped with a plate reader (TopCount, Packard Bioscience, Meriden, Conn.). Using 384 well flat MBP flashplates, total assay volume was 50 μl. The HTS program utilized a Biomek FX for dilution.
For each assay, the ingredients and conditions were as follows: 200 ng of enzyme was incubated in assay buffer (1× assay buffer contains 30 mM HEPES (pH 8.0), 5 mM DTT, and 10 mM MgCl2), 10 μM ATP, 0.2 μCi [gamma-^33P]-ATP and 10 μM of potential inhibitory compound. The reaction was incubated at room temperature for 60 minutes, washed 3 times with 75 μl of stop/wash buffer (1× stop/was buffer contains 50 mM EDTA and 20 mM Tris (pH 7.4)), and then the plates were read on the scintillation counter. Different concentrations of staurosporine (400 nM, 200 nM, 100 nM and 50 nM; purchased from BIOMOL (Plymouth Meeting, Pa.)) were used as controls on each plate.

T1 sequence (P53671 whole entry): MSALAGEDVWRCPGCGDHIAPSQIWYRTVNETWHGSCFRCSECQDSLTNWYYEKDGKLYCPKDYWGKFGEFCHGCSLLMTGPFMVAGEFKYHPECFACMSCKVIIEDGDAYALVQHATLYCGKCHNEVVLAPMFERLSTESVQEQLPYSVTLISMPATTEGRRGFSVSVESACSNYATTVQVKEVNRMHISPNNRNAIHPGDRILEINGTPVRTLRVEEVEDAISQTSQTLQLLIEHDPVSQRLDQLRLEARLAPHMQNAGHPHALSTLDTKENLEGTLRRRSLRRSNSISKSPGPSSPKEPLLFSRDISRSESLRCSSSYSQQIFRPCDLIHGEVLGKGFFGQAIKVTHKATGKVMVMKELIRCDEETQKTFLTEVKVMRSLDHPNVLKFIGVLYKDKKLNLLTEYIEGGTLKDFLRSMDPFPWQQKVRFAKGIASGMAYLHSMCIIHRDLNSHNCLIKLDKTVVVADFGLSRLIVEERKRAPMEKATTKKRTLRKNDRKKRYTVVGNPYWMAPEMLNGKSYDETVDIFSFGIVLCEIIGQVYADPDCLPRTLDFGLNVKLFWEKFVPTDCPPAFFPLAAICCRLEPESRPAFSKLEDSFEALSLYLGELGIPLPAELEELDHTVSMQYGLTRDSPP

For the molecule `COC(=O)NCC1(C(=O)Nc2cccc(OC(=O)N(C)C)c2)CCN(c2ncnc3[nH]cc(C)c23)CC1` [3-(4-((methoxycarbonylaminomethyl)-1-(5-methyl-7H-pyrrolo[2,3-d]pyrimidin-4-yl)piperidine-4-carboxamido)phenyl dimethylcarbamate], the half-inhibitory concentration (IC50) (in general, the midpoint of a concentration-inhibition curve) was less than 250 nM.

`CC(=O)NCC1(C(=O)Nc2cccc(OC(=O)N(C)C)c2)CCN(c2ncnc3[nH]cc(C)c23)CC1` [3-(4-(acetamidomethyl)-1-(5-methyl-7H-pyrrolo[2,3-d]pyrimidin-4-yl)piperidine-4-carboxamido)phenyl dimethylcarbamate] came in with a 50% inhibitory concentration (IC50) of less than 250 nM. To `CCN(CC)C(=O)Oc1cccc(NC(=O)C2(CN)CCN(c3ncnc4[nH]cc(C)c34)CC2)c1` [3-(4-(aminomethyl)-1-(5-methyl-7H-pyrrolo[2,3-d]pyrimidin-4-yl)piperidine-4-carboxamido)phenyl diethylcarbamate] belongs less than 250 nM; to `Cc1c[nH]c2ncnc(N3CCC(CN)(C(=O)Nc4cccc(OC(=O)N5CCCC5)c4)CC3)c12` [3-(4-(aminomethyl)-1-(5-methyl-7H-pyrrolo[2,3-d]pyrimidin-4-yl)piperidine-4-carboxamido)phenyl pyrrolidine-1-carboxylate], less than 250 nM; to `Cc1c[nH]c2ncnc(N3CCC(CN=[N+]=[N-])(C(=O)Nc4cccc(OC(=O)N(C)C)c4)CC3)c12` [3-(4-(azidomethyl)-1-(5-methyl-7H-pyrrolo[2,3-d]pyrimidin-4-yl)piperidine-4-carboxamido)phenyl dimethylcarbamate], less than 250 nM. As to `C=CCC1(C(=O)Nc2cccc(OC(=O)N(C)C)c2)CCN(c2ncnc3[nH]cc(C)c23)CC1` [3-(4-allyl-1-(5-methyl-7H-pyrrolo[2,3-d]pyrimidin-4-yl)piperidine-4-carboxamido)phenyl dimethylcarbamate], the IC50 is less than 250 nM.

`Cc1c[nH]c2ncnc(N3CCC(C#N)(C(=O)Nc4cccc(OC(=O)N(C)C)c4)CC3)c12` [3-(4-cyano-1-(5-methyl-7H-pyrrolo[2,3-d]pyrimidin-4-yl)piperidine-4-carboxamido)phenyl dimethylcarbamate]: the IC50 was less than 250 nM. For `Cc1c[nH]c2ncnc(N3CCC(C(=O)Nc4cccc(OC(=O)N(C)C)c4)(C(C)C)CC3)c12` [3-(4-isopropyl-1-(5-methyl-7H-pyrrolo[2,3-d]pyrimidin-4-yl)piperidine-4-carboxamido)phenyl dimethylcarbamate], the half-inhibitory concentration (IC50) is less than 250 nM. The result for `Cc1c[nH]c2ncnc(N3CCC(C)(C(=O)Nc4cccc(OC(=O)N5CCOCC5)c4)CC3)c12` [3-(4-methyl-1-(5-methyl-7H-pyrrolo[2,3-d]pyrimidin-4-yl)piperidine-4-carboxamido)phenyl morpholine-4-carboxylate] reads less than 250 nM; that for `CNc1nc2ccc(NC(=O)C3(CN)CCN(c4ncnc5[nH]cc(C)c45)CC3)cc2o1` [4-(aminomethyl)-1-(5-methyl-7H-pyrrolo[2,3-d]pyrimidin-4-yl)-N-(2-(methylamino)benzo[d]oxazol-6-yl)piperidine-4-carboxamide], less than 500 nM. For the molecule `Cc1c[nH]c2ncnc(N3CCC(CN)(C(=O)Nc4cccc(-c5cnco5)c4)CC3)c12` [4-(aminomethyl)-1-(5-methyl-7H-pyrrolo[2,3-d]pyrimidin-4-yl)-N-(3-(oxazol-5-yl)phenyl)piperidine-4-carboxamide], the IC50 is less than 250 nM. The result for `Cc1c[nH]c2ncnc(N3CCC(CN)(C(=O)Nc4cccc(C(F)(F)F)c4)CC3)c12` [4-(aminomethyl)-1-(5-methyl-7H-pyrrolo[2,3-d]pyrimidin-4-yl)-N-(3-(trifluoromethyl)phenyl)piperidine-4-carboxamide] reads less than 250 nM; that for `Cc1cccc(NC(=O)C2(CN)CCN(c3ncnc4[nH]cc(C)c34)CC2)c1` [4-(aminomethyl)-1-(5-methyl-7H-pyrrolo[2,3-d]pyrimidin-4-yl)-N-m-tolylpiperidine-4-carboxamide], less than 250 nM.

Take `Cc1c[nH]c2ncnc(N3CCC(CN)(C(=O)Nc4ccc5nc(N(C)C)oc5c4)CC3)c12` [4-(aminomethyl)-N-(2-(dimethylamino)benzo[d]oxazol-6-yl)-1-(5-methyl-7H-pyrrolo[2,3-d]pyrimidin-4-yl)piperidine-4-carboxamide]: the IC50 was less than 500 nM. The result for `Cc1c[nH]c2ncnc(N3CCC(CN)(C(=O)Nc4cccc(OCC(=O)N(C)C)c4)CC3)c12` [4-(aminomethyl)-N-(3-(2-(dimethylamino)-2-oxoethoxy)phenyl)-1-(5-methyl-7H-pyrrolo[2,3-d]pyrimidin-4-yl)piperidine-4-carboxamide] reads less than 250 nM; that for `COCCOc1cccc(NC(=O)C2(CN)CCN(c3ncnc4[nH]cc(C)c34)CC2)c1` [4-(aminomethyl)-N-(3-(2-methoxyethoxy)phenyl)-1-(5-methyl-7H-pyrrolo[2,3-d]pyrimidin-4-yl)piperidine-4-carboxamide], less than 250 nM; that for `Cc1c[nH]c2ncnc(N3CCC(CN)(C(=O)Nc4cccc(C(=O)N(C)C)c4)CC3)c12` [4-(aminomethyl)-N-(3-(dimethylcarbamoyl)phenyl)-1-(5-methyl-7H-pyrrolo[2,3-d]pyrimidin-4-yl)piperidine-4-carboxamide], less than 250 nM.

Molecule `Cc1c[nH]c2ncnc(N3CCC(CN)(C(=O)Nc4cccc(C(=O)NC(C)C)c4)CC3)c12` [4-(aminomethyl)-N-(3-(isopropylcarbamoyl)phenyl)-1-(5-methyl-7H-pyrrolo[2,3-d]pyrimidin-4-yl)piperidine-4-carboxamide] came in with a 50% inhibitory concentration (IC50) of less than 250 nM. The result for `Cc1c[nH]c2ncnc(N3CCC(CN)(C(=O)Nc4cccc(Br)c4)CC3)c12` [4-(aminomethyl)-N-(3-bromophenyl)-1-(5-methyl-7H-pyrrolo[2,3-d]pyrimidin-4-yl)piperidine-4-carboxamide] reads less than 250 nM. `Cc1c[nH]c2ncnc(N3CCC(CN)(C(=O)Nc4cccc(Cl)c4)CC3)c12` [4-(aminomethyl)-N-(3-chlorophenyl)-1-(5-methyl-7H-pyrrolo[2,3-d]pyrimidin-4-yl)piperidine-4-carboxamide] came in with an IC50 of less than 250 nM. The molecule `Cc1c[nH]c2ncnc(N3CCC(CN)(C(=O)Nc4cccc(C#N)c4)CC3)c12` [4-(aminomethyl)-N-(3-cyanophenyl)-1-(5-methyl-7H-pyrrolo[2,3-d]pyrimidin-4-yl)piperidine-4-carboxamide] registered a half-maximal inhibitory concentration (IC50) of less than 250 nM. `Cc1c[nH]c2ncnc(N3CCC(CN)(C(=O)Nc4cccc(F)c4)CC3)c12` [4-(aminomethyl)-N-(3-fluorophenyl)-1-(5-methyl-7H-pyrrolo[2,3-d]pyrimidin-4-yl)piperidine-4-carboxamide] gave an IC50 of less than 250 nM.

`Cc1c[nH]c2ncnc(N3CCC(CN)(C(=O)Nc4cccc(O)c4)CC3)c12` [4-(aminomethyl)-N-(3-hydroxyphenyl)-1-(5-methyl-7H-pyrrolo[2,3-d]pyrimidin-4-yl)piperidine-4-carboxamide] registered a half-maximal inhibitory concentration (IC50) of less than 250 nM. To `Cc1c[nH]c2ncnc(N3CCC(CN)(C(=O)Nc4cccc(OC(C)C)c4)CC3)c12` [4-(aminomethyl)-N-(3-isopropoxyphenyl)-1-(5-methyl-7H-pyrrolo[2,3-d]pyrimidin-4-yl)piperidine-4-carboxamide] belongs less than 250 nM; to `COc1cccc(NC(=O)C2(CN)CCN(c3ncnc4[nH]cc(C)c34)CC2)c1` [4-(aminomethyl)-N-(3-methoxyphenyl)-1-(5-methyl-7H-pyrrolo[2,3-d]pyrimidin-4-yl)piperidine-4-carboxamide], less than 250 nM.
